# Target: T1, Human glucocorticoid receptors (Homo sapiens, UniProt P04150)
# T1 construct: made in house; host or cells: Sf9 insect cells, recombinant baculovirus (BAC-TO-BAC)
# T1 sequence (P04150 1-777): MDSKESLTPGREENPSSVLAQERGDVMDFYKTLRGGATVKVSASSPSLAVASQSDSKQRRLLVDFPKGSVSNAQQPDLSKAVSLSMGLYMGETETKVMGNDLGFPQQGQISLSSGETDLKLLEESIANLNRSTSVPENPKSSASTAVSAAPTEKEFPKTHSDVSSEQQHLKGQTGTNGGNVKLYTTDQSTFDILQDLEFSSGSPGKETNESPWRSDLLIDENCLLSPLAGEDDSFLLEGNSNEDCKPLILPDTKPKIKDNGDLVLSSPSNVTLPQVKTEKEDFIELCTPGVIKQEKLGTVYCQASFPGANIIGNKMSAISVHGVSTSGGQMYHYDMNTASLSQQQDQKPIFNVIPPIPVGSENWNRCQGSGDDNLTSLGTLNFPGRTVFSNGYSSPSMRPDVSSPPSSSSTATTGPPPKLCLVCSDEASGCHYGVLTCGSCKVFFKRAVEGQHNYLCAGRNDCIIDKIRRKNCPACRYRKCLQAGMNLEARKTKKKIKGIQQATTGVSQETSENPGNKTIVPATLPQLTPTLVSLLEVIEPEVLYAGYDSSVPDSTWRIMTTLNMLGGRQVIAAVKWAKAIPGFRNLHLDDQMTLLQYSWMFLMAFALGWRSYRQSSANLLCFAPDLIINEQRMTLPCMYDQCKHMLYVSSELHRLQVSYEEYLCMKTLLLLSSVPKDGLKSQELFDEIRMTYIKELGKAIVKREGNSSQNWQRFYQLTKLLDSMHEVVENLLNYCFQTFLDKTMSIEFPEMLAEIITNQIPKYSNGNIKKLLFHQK
# Assay: Radioligand filter binding assay, displacement of 3[H]-dexamethasone from hGR
# Conditions: read-out: GR Binding (% Inhibition at 1.7 μM)
# Source text: Dexamethasone hereafter referred to as dex was purchased from SIGMA. […] Human glucocorticoid receptors were extracted from Sf9 cells infected with a recombinant baculovirus transfer vector containing the cloned hGR genes. Recombinant baculovirus was generated utilizing the BAC-TO-BAC expression system (Life Technologies) in accordance to instruction from the supplier. The hGR coding sequences were cloned into a baculovirus transfer vector by standard techniques. The recombinant baculoviruses expressing hGR were amplified and used to infect Sf9 cells. Infected cells were harvested 48 hrs post infection. […] The concentration of hGR in the extract was measured as specific ^3[H]-dex binding with the G25-assay as described in J. Steroid Biochem. Molec. […] The extract was aliquoted and stored at −70° C.
# The filter binding assay: Dilution series of the test compounds and dex as reference were made from 10 mM (1 mM dex) stock solutions in DMSO. 10 μl of the dilutions was added in duplicates to the wells. The cell extracts were diluted 10 fold in EPMo+MTG buffer (1 mM EDTA, HPO4 20 mM (pH8), 6 mM MTG). […] 110 μl of the diluted ^3[H]-dex were added to the wells. The final concentration of hGR in the experiment was estimated to 1 nM. All preparations were made in […] on ice and with +4° C. temperated buffers. The plates were incubated over night at +4° C. (15-20 hours).
# The incubation was stopped by filtration through GF/B filter on the Tomtec Cellharvester. The filtration on the Tomtec Cellharvester was programmed as follows: 1) Preparation before filtration with EP buffer (1 mM EDTA 20 mM HPO4 (pH8)) 2×[Wash/Asp 0.6 sec., Asp 0.5 sec.]; 2) Prewet of GF/B filter with EP+PEI buffer (EP buffer, 0.3% Polyethylenimine) [Asp 0.8 sec.]; 3) Filtration/harvesting of the 96-well incubation plate 3×[Wash/Asp 0.6 sec., Asp 0.5 sec.]. The GF/B filter was dried for at least 1 hour at 65° C. A MeltiLex scintillation wax was melted onto the filter with the Microsealer. The filter was placed in a samplebag, which was thereafter trimmed with scissors to fit the filter cassette. The cassette were placed in the Microbeta and measured for 1 min/position, returning ccpm (corrected counts per minute).
# b=((bmax−bmin)/(1+(I/IC50)^S))+bminI
# The Microbeta-instrument generates the mean cpm (counts per minute) value/minute and corrects for individual variations between the detectors thus generating corrected cpm values.
row,SMILES,inhibition at 1.7 µM [%]
1,"Cc1c(NS(C)(=O)=O)cccc1N(Cc1ccccc1)Cc1ccc(Oc2ccc(OCC(=O)NN)cc2)cc1 [Example 277, N-[3-(benzyl{4-[4-(2-hydrazino-2-oxoethoxy)phenoxy]benzyl}amino)-2-methylphenyl]methanesulfonamide]",90.6
2,"Cc1c(NS(C)(=O)=O)cccc1N(Cc1ccccc1)Cc1ccc(Oc2ccc(OCCCC(=O)N[C@@H](CCC(N)=O)C(=O)O)cc2)cc1 [Example 260, N˜2˜-[4-(4-{4-[(benzyl{2-methyl-3-[(methylsulfonyl)amino]phenyl}amino)methyl]phenoxy}phenoxy)butanoyl]-L-glutamine]",91.3
3,"Cc1c(NS(C)(=O)=O)cccc1N(Cc1ccccc1)Cc1ccc(Oc2cccc(OCCCC(=O)N(C)CC(=O)O)c2)cc1 [Example 240, N-[4-(3-{4-[(benzyl{2-methyl-3-[(methylsulfonyl)amino]phenyl}amino)methyl]phenoxy}phenoxy)butanoyl]-N-methylglycine]",93.3
4,"CC(=O)c1cccc(Oc2ccc(CN(Cc3ccc(F)cc3F)c3cccc(NS(C)(=O)=O)c3C)cc2)c1 [Example 140, N-{3-[[4-(3-acetylphenoxy)benzyl](2,4-difluorobenzyl)amino]-2-methylphenyl}methanesulfonamide]",88.1
5,"Cc1c(NS(C)(=O)=O)cccc1N(Cc1ccccc1)Cc1ccc(Oc2cccc(OC3CCOC3)c2)cc1 (stereo not shown) [Example 288, N-[3-(benzyl{4-[3-(tetrahydrofuran-3-yloxy)phenoxy]benzyl}amino)-2-methylphenyl]methanesulfonamide]",89.8
6,"Cc1c(NS(=O)(=O)N(C)C)cccc1N(Cc1ccccc1)Cc1ccccc1 [Example 5, N′-[3-(dibenzylamino)-2-methylphenyl]-N,N-dimethylsulfamide]",75.2
7,"Cc1c(NS(C)(=O)=O)cccc1N(Cc1ccccc1)Cc1ccc(C(=O)c2cccc(OCC3CCCC3)c2)cc1 [Example 243, N-[3-(benzyl{4-[3-(cyclopentylmethoxy)benzoyl]benzyl}amino)-2-methylphenyl]methanesulfonamide]",92
8,"Cc1c(NS(C)(=O)=O)cccc1N(Cc1ccccc1)Cc1ccc(C(=O)c2cccc(OCCC3CC3)c2)cc1 [Example 242, N-[3-(benzyl{4-[3-(2-cyclopropylethoxy)benzoyl]benzyl}amino)-2-methylphenyl]methanesulfonamide]",94.1
9,"Cc1c(NS(C)(=O)=O)cccc1N(Cc1ccccc1)Cc1ccc(Oc2ccc(Cl)c(OCCCC(=O)NCCCC(=O)O)c2)cc1 [Example 319, 4-((4-(5-(4-((benzyl(2-methyl-3-((methylsulfonyl)amino)phenyl)amino)methyl)phenoxy)-2-chlorophenoxy)butanoyl)amino)butanoic acid]",96.4
10,"Cc1c(NS(C)(=O)=O)cccc1N(Cc1ccccc1)Cc1ccc(Oc2ccc(OCCCCC(=O)NCCCC(=O)O)cc2)cc1 [Example 263, 4-{[5-(4-{4-[(benzyl{2-methyl-3-[(methylsulfonyl)amino]phenyl}amino)methyl]phenoxy}phenoxy)pentanoyl]amino}butanoic acid]",91.7
11,"Cc1c(NS(C)(=O)=O)cccc1N(Cc1ccccc1)Cc1ccc(C(=O)c2cccc(OCc3ccccc3)c2)cc1 [Example 247, N-[3-(benzyl{4-[3-(benzyloxy)benzoyl]benzyl}amino)-2-methylphenyl]methanesulfonamide]",90.9
12,"Cc1c(NS(C)(=O)=O)cccc1N(Cc1ccccc1)Cc1ccc(Oc2ccc(OCCCC(=O)N(C)CC(=O)O)cc2)cc1 [Example 254, N-[4-(4-{4-[(benzyl{2-methyl-3-[(methylsulfonyl)amino]phenyl}amino)methyl]phenoxy}phenoxy)butanoyl]-N-methylglycine]",92.8
13,"Cc1ncsc1CCOc1cccc(C(=O)c2ccc(CN(Cc3ccccc3)c3cccc(NS(C)(=O)=O)c3C)cc2)c1 [Example 249, N-{3-[benzyl(4-{3-[2-(4-methyl-1,3-thiazol-5-yl)ethoxy]benzoyl}benzyl)amino]-2-methylphenyl}methanesulfonamide]",95.4
14,"Cc1c(NS(C)(=O)=O)cccc1N(Cc1ccccc1)Cc1ccc(Oc2cccc(OCC3(C)COC3)c2)cc1 [Example 283, N-{3-[benzyl(4-{3-[(3-methyloxetan-3-yl)methoxy]phenoxy}benzyl)amino]-2-methylphenyl}methanesulfonamide]",89.7
15,"Cc1c(NS(C)(=O)=O)cccc1N(Cc1ccccc1)Cc1ccc(Oc2ccc(OCC(=O)N[C@H](C(=O)O)C(C)C)cc2)cc1 [Example 273, N-[(4-{4-[(benzyl{2-methyl-3-[(methylsulfonyl)amino]phenyl}amino)methyl]phenoxy}phenoxy)acetyl]-L-valine]",91.2
16,"Cc1c(NS(C)(=O)=O)cccc1N(Cc1ccccc1)Cc1ccc(Oc2ccc(OCC(=O)NCCCC(=O)O)cc2)cc1 [Example 271, 4-{[(4-{4-[(benzyl{2-methyl-3-[(methylsulfonyl)amino]phenyl}amino)methyl]phenoxy}phenoxy)acetyl]amino}butanoic acid]",91
17,"Cc1c(NS(C)(=O)=O)cccc1N(Cc1ccc(Oc2ccc(Cl)c(OCC(=O)NCC(=O)O)c2)cc1)Cc1ccc(F)cc1F [Example 316, N-((2-chloro-5-(4-(((2,4-difluorobenzyl)(2-methyl-3-((methylsulfonyl)amino)phenyl)amino)methyl)phenoxy)phenoxy)acetyl)glycine]",96.3
18,"Cc1c(NS(C)(=O)=O)cccc1N(Cc1ccccc1)Cc1ccc(Oc2cccc(OCCCC(=O)N3CCC[C@H]3C(=O)O)c2)cc1 [Example 282, 1-[4-(3-{4-[(benzyl{2-methyl-3-[(methylsulfonyl)amino]phenyl}amino)methyl]phenoxy}phenoxy)butanoyl]proline]",89.9
19,"Cc1c(NS(C)(=O)=O)cccc1N(Cc1ccc(Oc2ccc(Cl)c(OCC(=O)O)c2)cc1)Cc1ccc(Cl)cc1Br [Example 312, (5-(4-(((2-bromo-4-chlorobenzyl)(2-methyl-3-((methylsulfonyl)amino)phenyl)amino)methyl)phenoxy)-2-chlorophenoxy)acetic acid]",97.3
20,"Cc1c(NS(C)(=O)=O)cccc1N(Cc1ccccc1)Cc1ccc(Oc2ccc(OCCCCC(=O)N3CCC[C@H]3C(=O)O)cc2)cc1 [Example 267, 1-[5-(4-{4-[(benzyl{2-methyl-3-[(methylsulfonyl)amino]phenyl}amino)methyl]phenoxy}phenoxy)pentanoyl]-L-proline]",92.2
21,"Cc1c(NS(C)(=O)=O)cccc1N(Cc1ccc(Oc2ccc(Cl)c(OCC(=O)O)c2)cc1)Cc1ccc(Cl)cc1Cl [Example 309, (2-chloro-5-(4-(((2,4-dichlorobenzyl)(2-methyl-3-((methylsulfonyl)amino)phenyl)amino)methyl)phenoxy)phenoxy)acetic acid]",97.4
22,"Cc1c(NS(C)(=O)=O)cccc1N(Cc1ccc(Oc2ccc(Cl)c(OCC(=O)O)c2)cc1)Cc1ccc(Br)cc1F [Example 315, (5-(4-(((4-bromo-2-fluorobenzyl)(2-methyl-3-((methylsulfonyl)amino)phenyl)amino)methyl)phenoxy)-2-chlorophenoxy)acetic acid]",97

# From US6583180B2, “Glucocorticoid receptor modulators” (Abbott Laboratories, priority 2001, dated 2003)
